Data on 36 molecules can be found in patent US7674807B2, “Heterocycle-substituted n-phenyl-phthalamide derivatives, related compounds and their use as insecticides” (Bayer CropScience AG, priority 2004, dated 2010).

Assay [1] relates to larva of Spodoptera litura. Description: Test against larva of Spodoptera litura (leaf dip, sweet potato leaves). The format is in vivo. The following applies: 20 ppm concentration of the active component; third instar larvae; counted after 7 days; 25° C. The method, then: Preparation of Test Solution:
In order to make an appropriate formulation of an active compound, 1 part by weight of the active compound was mixed with the above-mentioned amount of solvent containing the above-mentioned amount of emulsifier and the mixture was diluted with water to a prescribed concentration.
Leaves of sweet potato were soaked in the test solution diluted to a prescribed concentration with water, dried in the air and put in a dish of 9 cm diameter.
10 larvae of Spodoptera litura at the third instar were placed on the leaves and kept in a room at the constant temperature of 25° C. After 2 and 4 days further leaves of sweet potato were added and after 7 days the number of dead larvae was counted and the rate of death was calculated.
In this test the results of 2 dishes at 1 section were averaged.

The test system of assay [2] is larva of Cnaphalocrocis medinalis Guenee. Put plainly: Test against larva of Cnaphalocrocis medinalis Guenee (sprayed paddy rice foliage). The format is in vivo. The settings on record: 20 ppm concentration of the active component; second instar larvae; counted after 7 days; 25° C. On the procedure: Paddy rice (variety: Tamanishiki) planted in a pot was treated by spraying 50 ml per pot of the diluted aqueous solution of the prescribed concentration of the active compound prepared in the same manner as in the above-mentioned Biological Test Example 1. After the treated rice plant was dried in the air, their foliage part was cut in 4-5 cm length, which were put in a dish with 9 cm diameter with a sheet of filter paper and 2 ml of water. Five larvae of Cnaphalocrocis medinalis Guenee at the second instar were put in the dish that was placed in a room at the constant temperature of 25° C. After 2 and 4 days, each rest (each ⅓ amount) of foliage parts of rice plant were cut in the same manner and added to the dish. After 7 days the number of dead larvae was counted and the rate of death was calculated. In this test the results of 2 dishes at 1 section were averaged.

For `Cc1cc(Cn2nc(C(F)(F)F)cc2C(F)(F)F)ccc1NC(=O)c1cccc(I)c1C(=O)NC(C)C[S+](C)[O-]` (mixture of isomers) [compound 87], the “controlling effect, rate of death” value in assay [1] and in assay [2] was 100% in each case.
On to `CSCC(C)NC(=O)c1c(Br)cccc1C(=O)Nc1ccc(Cn2nc(C(F)(F)F)cc2C(F)(F)F)cc1C` (racemic) [compound 48], for which the “controlling effect, rate of death” value in assay [1] and in assay [2] was 100% throughout.
In the case of `Cc1cc(Oc2nc(C(F)(F)F)cc(C(F)(F)F)n2)ccc1NC(=O)c1cccc(I)c1C(=O)NC(C)(C)CS(C)(=O)=O` [compound 310], the “controlling effect, rate of death” value in assay [1] and in assay [2] was 100% throughout.
For `CSC[C@H](C)NC(=O)c1c(Cl)cccc1C(=O)Nc1ccc(C(C)n2nc(C(F)(F)F)cc2C(F)(F)F)cc1C` (stereo partly drawn) [compound 559], the “controlling effect, rate of death” value in assay [1] and in assay [2] was 100% in each case.
`CSCC(C)NC(=O)c1c(I)cccc1C(=O)Nc1ccc(-n2nc(C(F)(F)C(F)(F)F)cc2C(F)(F)F)cc1C` (stereo not drawn) [compound 473]: the “controlling effect, rate of death” value in assay [1] and in assay [2] was 100% in each case.
Take `Cc1cc(Cn2nc(C(F)(F)F)nc2C(F)(F)F)ccc1NC(=O)c1cccc(Cl)c1C(=O)NC(C)C[S+](C)[O-]` (stereo not drawn) [compound 142]: the “controlling effect, rate of death” value in assay [1] and in assay [2] was 100% throughout.
On to `Cc1cc(Cn2nc(C(F)(F)F)cc2C(F)(F)F)ccc1NC(=O)c1cccc([N+](=O)[O-])c1C(=O)N[C@@H](C)CS(C)(=O)=O` [compound 545], for which the “controlling effect, rate of death” value in assay [1] and in assay [2] was 100% each time.
As to `Cc1cc(Cn2nc(C(F)(F)C(F)(F)F)nc2C(F)(F)F)ccc1NC(=O)c1cccc(Cl)c1C(=O)NC(C)C[S+](C)[O-]` (stereo not drawn) [compound 155], the “controlling effect, rate of death” value in assay [1] and in assay [2] was 100% in each case.
In the case of `Cc1cc(Cn2nc(C(F)(F)F)cc2C(F)(F)F)ccc1NC(=O)c1cccc(Br)c1C(=O)NC(C)CS(C)(=O)=O` (racemic) [compound 52], the “controlling effect, rate of death” value in assay [1] and in assay [2] was 100% throughout.
`Cc1cc(Cn2nc(C(F)(F)F)cc2C(F)(F)F)ccc1NC(=O)c1cccc(I)c1C(=O)NC(C)CS(C)(=O)=O` (racemic) [compound 89]: the “controlling effect, rate of death” value in assay [1] and in assay [2] was 100% throughout.
For the molecule `CSC[C@H](C)NC(=O)c1c(Cl)cccc1C(=O)Nc1ccc(Cn2cc(C(F)(F)C(F)(F)C(F)(F)F)c(C(F)(F)F)n2)cc1C` [compound 643], the “controlling effect, rate of death” value in assay [1] and in assay [2] was 100% throughout.
Consider `CSCC(C)NC(=O)c1c(Cl)cccc1C(=O)Nc1ccc(Cn2nc(C(F)(F)F)cc2C(F)(F)F)cc1C` (stereo not drawn) [compound 12], for which the “controlling effect, rate of death” value in assay [1] and in assay [2] was 100% in each case.
On to `Cc1cc(Cn2cc(C(F)(F)C(F)(F)C(F)(F)F)c(C(F)(F)C(F)(F)C(F)(F)F)n2)ccc1NC(=O)c1cccc(I)c1C(=O)N[C@@H](C)C[S+](C)[O-]` (stereo partly drawn) [compound 671], for which the “controlling effect, rate of death” value in assay [1] and in assay [2] was 100% in each case.
Take `Cc1cc(C(C)n2nc(C(F)(F)F)nc2C(F)(F)F)ccc1NC(=O)c1cccc(I)c1C(=O)N[C@@H](C)CS(C)(=O)=O` (stereo partly drawn) [compound 573]: the “controlling effect, rate of death” value in assay [1] and in assay [2] was 100% throughout.
For the molecule `CSCC(C)NC(=O)c1c(Cl)cccc1C(=O)Nc1ccc(Cn2nc(C(F)(F)F)cc2C(F)(F)F)cc1C` (racemic) [compound 11], the “controlling effect, rate of death” value in assay [1] and in assay [2] was 100% throughout.
For `Cc1cc(Cn2nc(C(F)(F)F)cc2C(F)(F)F)ccc1NC(=O)c1cccc(OS(C)(=O)=O)c1C(=O)NC(C)CS(C)(=O)=O` (stereo not drawn) [compound 132], the “controlling effect, rate of death” value in assay [1] and in assay [2] was 100% throughout.
For `CSCC(C)(C)NC(=O)c1c(I)cccc1C(=O)Nc1ccc(-n2nccc2C(F)(F)C(F)(F)F)cc1C` [compound 422], the “controlling effect, rate of death” value in assay [1] and in assay [2] was 100% each time.
Consider `Cc1cc(Cc2c(OC(F)F)nn(C(F)F)c2C(F)(F)F)ccc1NC(=O)c1cccc(I)c1C(=O)NC(C)CS(C)(=O)=O` (stereo not drawn) [compound 270], for which the “controlling effect, rate of death” value in assay [1] and in assay [2] was 100% throughout.
Turning to `Cc1cc(Cn2nc(C(F)(F)F)nc2C(F)(F)F)ccc1NC(=O)c1cccc(I)c1C(=O)NC(C)C[S+](C)[O-]` (stereo not drawn) [compound 216], the “controlling effect, rate of death” value in assay [1] and in assay [2] was 100% in each case.
As for `Cc1cc(Cn2nc(C(F)(F)C(F)(F)F)nc2C(F)(F)F)ccc1NC(=O)c1cccc(Cl)c1C(=O)NC(C)CS(C)(=O)=O` (stereo not drawn) [compound 157], the “controlling effect, rate of death” value in assay [1] and in assay [2] was 100% each time.
Consider `CSCC(C)NC(=O)c1c(I)cccc1C(=O)Nc1ccc(Cn2c(C(F)(F)F)nnc2C(F)(F)F)cc1C` (stereo not drawn) [compound 299], for which the “controlling effect, rate of death” value in assay [1] and in assay [2] was 100% in each case.
Turning to `CSCC(C)(C)NC(=O)c1c(I)cccc1C(=O)Nc1ccc(-n2ccc(C(F)(F)C(F)(F)F)n2)cc1C` [compound 434], the “controlling effect, rate of death” value in assay [1] and in assay [2] was 100% throughout.
Consider `Cc1cc(Cc2c(C(F)(F)F)nn(C(F)F)c2OC(F)F)ccc1NC(=O)c1cccc(I)c1C(=O)NC(C)CS(C)(=O)=O` (stereo not drawn) [compound 264], for which the “controlling effect, rate of death” value in assay [1] and in assay [2] was 100% each time.
`CSCC(C)NC(=O)c1c(OS(C)(=O)=O)cccc1C(=O)Nc1ccc(Cn2nc(C(F)(F)F)nc2C(F)(F)F)cc1C` (stereo not drawn) [compound 251]: the “controlling effect, rate of death” value in assay [1] and in assay [2] was 100% each time.
As for `Cc1cc(Cn2nc(C(F)(F)F)cc2C(F)(F)F)ccc1NC(=O)c1cccc(Cl)c1C(=O)NC(C)C[S+](C)[O-]` (mixture of isomers) [compound 14], the “controlling effect, rate of death” value in assay [1] and in assay [2] was 100% in each case.
With `Cc1cc(C(C)n2nc(C(F)(F)F)cc2C(F)(F)F)ccc1NC(=O)c1cccc(I)c1C(=O)N[C@@H](C)CS(C)(=O)=O` (stereo partly drawn) [compound 564], the “controlling effect, rate of death” value in assay [1] and in assay [2] was 100% in each case.
`CSC[C@H](C)NC(=O)c1c(I)cccc1C(=O)Nc1ccc(Cn2cc(C(F)(F)C(F)(F)C(F)(F)F)c(C(F)(F)C(F)(F)C(F)(F)F)n2)cc1C` [compound 670]: the “controlling effect, rate of death” value in assay [1] and in assay [2] was 100% throughout.
For the molecule `Cc1cc(Cn2nc(C(F)(F)F)cc2C(F)(F)F)ccc1NC(=O)c1cccc(Br)c1C(=O)NC(C)C[S+](C)[O-]` (mixture of isomers) [compound 51], the “controlling effect, rate of death” value in assay [1] and in assay [2] was 100% each time.
In the case of `CSC[C@H](C)NC(=O)c1c(C(=O)Nc2ccc(Cn3nc(C(F)(F)F)cc3C(F)(F)F)cc2C)cccc1S(C)(=O)=O` [compound 552], the “controlling effect, rate of death” value in assay [1] and in assay [2] was 100% throughout.
`Cc1cc(Cn2cc(C(F)(F)C(F)(F)C(F)(F)F)c(C(F)(F)C(F)(F)C(F)(F)F)n2)ccc1NC(=O)c1cccc(I)c1C(=O)N[C@@H](C)CS(C)(=O)=O` [compound 672]: the “controlling effect, rate of death” value in assay [1] and in assay [2] was 100% throughout.
As for `Cc1cc(Cn2nc(C(F)(F)F)nc2C(F)(F)F)ccc1NC(=O)c1cccc(I)c1C(=O)NC(C)C[S+](C)[O-]` (stereo not drawn) [compound 217], the “controlling effect, rate of death” value in assay [1] and in assay [2] was 100% in each case.
Turning to `Cc1cc(Cn2nc(C(F)(F)F)nc2C(F)(F)F)ccc1NC(=O)c1cccc(OS(C)(=O)=O)c1C(=O)NC(C)C[S+](C)[O-]` (stereo not drawn) [compound 253], the “controlling effect, rate of death” value in assay [1] and in assay [2] was 100% in each case.
`CSCC(C)NC(=O)c1c(Br)cccc1C(=O)Nc1ccc(Cn2nc(C(F)(F)F)cc2C(F)(F)F)cc1C` (stereo not drawn) [compound 49]: the “controlling effect, rate of death” value in assay [1] and in assay [2] was 100% throughout.
With `CSC[C@H](C)NC(=O)c1c(I)cccc1C(=O)Nc1ccc(C(C)n2nc(C(F)(F)F)cc2C(F)(F)F)cc1C` (stereo partly drawn) [compound 562], the “controlling effect, rate of death” value in assay [1] and in assay [2] was 100% throughout.
For `CSC[C@H](C)NC(=O)c1c(I)cccc1C(=O)Nc1ccc(Cn2nc(C(F)(F)F)c(I)c2C(F)(F)F)cc1C` [compound 554], the “controlling effect, rate of death” value in assay [1] and in assay [2] was 100% in each case.
With `Cc1cc(Cn2cc(C(F)(F)C(F)(F)C(F)(F)C(F)(F)F)c(C(F)(F)F)n2)ccc1NC(=O)c1cccc(Cl)c1C(=O)N[C@@H](C)C[S+](C)[O-]` (stereo partly drawn) [compound 646], the “controlling effect, rate of death” value in assay [1] and in assay [2] was 100% each time.
